According to US5120730A, “Benzothiazepine esters, their preparation and formulations for therapeutic use” (IdB Holding SpA, priority 1990, dated 1992):
Entries after “also recorded” stand apart in the source; their conditions may differ. Read-outs that look alike come from different tables or passages of the source.

How the values were obtained:
[1] = test system: isolated guinea pig atria; experiment: Isolated guinea pig atria: force and frequency of spontaneous contractions; set-up: species or system guinea pig (Hartley-Dunkin); conditions: for inhibition at 10 µM / activation at 10 µM / IC25: Cavia porcellus; for inhibition at 10 µM: read-out: negative chronotropic effect; for activation at 10 µM: read-out: positive inotropic effect; for activity on force and frequency of the contractions (in words) / IC25: isolated guinea pig atria; for IC25: n = 6
Description: 1. The atria taken from Hartley-Dunkin guinea pigs of average weight 400-450 g were placed in an isolated organ bath of 15 ml containing a physiological Krebs solution (J. C. Doxey et al., Br. J. Pharmac. 78, 498, 1983) at a temperature of 30°±0.5° and oxygenated by means of a gaseous mixture composed of 95% of O2 and 5% of CO2. The force and frequency of the spontaneous contractions (T. De Gubareff and W. Sleaton Jr., J. Pharm. Exp. Ther., 148, 202, 1965) were recorded by means of an isometric force transducer. The concentration of product required to reduce the contraction force and frequency by 25% (IC25) and the relevant pIC25 were calculated.

[2] = test system: isolated rat portal vein; experiment: Isolated rat portal vein: force of spontaneous contraction; set-up: species or system rat (Sprague-Dawley); conditions: for selectivity, isolated vessels vs atria (in words): comparison of rat portal vein with guinea pig atria; for inhibition of contraction force (in words) / IC50: isolated rat portal vein; for IC50: 50% reduction of contraction force, n = 6, read-out: Contraction force pIC50 (converted)
From the text: 2. 2-3 cm strips of portal vein were taken from Sprague-Dawley rats of 220-250 g weight.

[3] = rats
From the text: (§1) Sprague-Dawley rats of both sexes (5 male+5 female) were used for each experimental group.

[4] = in vivo; conditions: rat
From the text: as §1

[5] = Haemodynamics in anaesthetized rats; type: in vivo, rat (Sprague-Dawley); conditions: for change in BP (systemic arterial pressure) / change in HR (heart rate) / change in LVP (left intraventricular pressure) / change in dp/dt: n = 6
Description: Male Sprague-Dawley rats of average weight 350-400 g, anaesthetized with sodium pentobarbital in an intraperitoneal dose of 60 mg/kg, underwent cannulation for measuring the following parameters: systemic arterial pressure (BP), heart rate (HR) left intraventricular pressure (LVP) and dp/dt.
After recording of the baseline values, the substances were injected by the intravenous route within a time of 30 seconds. The changes in the parameters indicated above were measured at times of 0.5-2-10 and 20 minutes.

COc1ccc([C@@H]2Sc3ccccc3N(CCN(C)C)C(=O)[C@@H]2OC(=O)CCC(=O)O[C@H]2C(=O)N(CCN(C)C)c3ccccc3S[C@H]2c2ccc(OC)cc2)cc1 (relative stereo) [Ib, 3,3'-[(1,4-dioxo-1,4-butanediyl)-bis(oxy)] bis[(+)-cis-5-[2-(dimethylamino)ethyl]-2,3-dihydro-2-(4-methoxyphenyl)-1,5-benzothiazepin-4(5H)-one]]
inhibition at 10 µM [1]: 5% | activation at 10 µM [1]: 12% | activity on force and frequency of the contractions (in words) [1]: virtually inactive; also recorded: free of the negative chronotropic and inotropic effects | selectivity, isolated vessels vs atria (in words) [2]: selective activity on the isolated vessels | inhibition of contraction force (in words) [2]: antagonize the contraction force in a dose-dependent manner; also recorded: significantly inhibit the contraction force | IC50 [2]: 2340 nM | toxicity versus diltiazem, intraperitoneal (in words) [3]: less toxic than the reference product | toxicity versus diltiazem, oral (in words) [3]: LD50 comparable with that of diltiazem | LD50 at 336 h ([4]; ip): 600 mg/kg | LD50 at 336 h ([4]; po): 881 mg/kg

COc1ccc([C@@H]2Sc3ccccc3N(CCN(C)C)C(=O)[C@@H]2OC(C)=O)cc1 [Diltiazem, (+)-Cis-5-[2-(dimethylamino)ethyl]-3-acetoxy-2,3-dihydro-2-(4-methoxyphenyl)-1,5-benzothiazepin-4(5H)-one, reference compound]
IC25 ([1]; 25% reduction of contraction force, read-out: Contraction force pIC25 (converted)): 513 nM | IC25 ([1]; 25% reduction of contraction frequency, read-out: Frequency pIC25 (converted)): 355 nM | activity on force and frequency of the contractions (in words) [1]: significant activity | IC50 [2]: 813 nM | change in BP (systemic arterial pressure) ([5]; 0.35 μmol/kg i.v., 0.5 minutes): -21 mmHg | change in HR (heart rate) ([5]; 0.35 μmol/kg i.v., 0.5 minutes): -4 bpm | change in LVP (left intraventricular pressure) ([5]; 0.35 μmol/kg i.v., 0.5 minutes): -18 mmHg | change in dp/dt ([5]; 0.35 μmol/kg i.v., 0.5 minutes): -150 mmHg/sec | change in BP (systemic arterial pressure) ([5]; 0.35 μmol/kg i.v., 2 minutes): -1 mmHg | change in HR (heart rate) ([5]; 0.35 μmol/kg i.v., 2 minutes): +6 bpm | change in LVP (left intraventricular pressure) ([5]; 0.35 μmol/kg i.v., 2 minutes): -1 mmHg | change in dp/dt ([5]; 0.35 μmol/kg i.v., 2 minutes): -25 mmHg/sec | change in BP (systemic arterial pressure) ([5]; 0.35 μmol/kg i.v., 10 minutes): +6 mmHg | change in HR (heart rate) ([5]; 0.35 μmol/kg i.v., 10 minutes): +10 bpm | change in LVP (left intraventricular pressure) ([5]; 0.35 μmol/kg i.v., 10 minutes): +2 mmHg | change in dp/dt ([5]; 0.35 μmol/kg i.v., 10 minutes): -17 mmHg/sec | change in BP (systemic arterial pressure) ([5]; 0.35 μmol/kg i.v., 20 minutes): +1 mmHg | change in HR (heart rate) ([5]; 0.35 μmol/kg i.v., 20 minutes): +3 bpm | change in LVP (left intraventricular pressure) ([5]; 0.35 μmol/kg i.v., 20 minutes): -5 mmHg | change in dp/dt ([5]; 0.35 μmol/kg i.v., 20 minutes): -183 mmHg/sec | effect on all observed parameters (in words) ([5]; 0.7 μmol/kg i.v.): significantly reduces all the observed parameters | effect on heart rate and contractility (in words) ([5]; 0.7 μmol/kg i.v.): significant cardiodepressive effect | change in BP (systemic arterial pressure) ([5]; 0.70 μmol/kg i.v., 0.5 minutes): -52 mmHg | change in HR (heart rate) ([5]; 0.70 μmol/kg i.v., 0.5 minutes): -83 bpm | change in LVP (left intraventricular pressure) ([5]; 0.70 μmol/kg i.v., 0.5 minutes): -46 mmHg | change in dp/dt ([5]; 0.70 μmol/kg i.v., 0.5 minutes): -658 mmHg/sec | change in BP (systemic arterial pressure) ([5]; 0.70 μmol/kg i.v., 2 minutes): -34 mmHg | change in HR (heart rate) ([5]; 0.70 μmol/kg i.v., 2 minutes): -99 bpm | change in LVP (left intraventricular pressure) ([5]; 0.70 μmol/kg i.v., 2 minutes): -24 mmHg | change in dp/dt ([5]; 0.70 μmol/kg i.v., 2 minutes): -375 mmHg/sec | change in BP (systemic arterial pressure) ([5]; 0.70 μmol/kg i.v., 10 minutes): -16 mmHg | change in HR (heart rate) ([5]; 0.70 μmol/kg i.v., 10 minutes): -5 bpm | change in LVP (left intraventricular pressure) ([5]; 0.70 μmol/kg i.v., 10 minutes): -4 mmHg | change in dp/dt ([5]; 0.70 μmol/kg i.v., 10 minutes): -108 mmHg/sec | change in BP (systemic arterial pressure) ([5]; 0.70 μmol/kg i.v., 20 minutes): +9 mmHg | change in HR (heart rate) ([5]; 0.70 μmol/kg i.v., 20 minutes): +7 bpm | change in LVP (left intraventricular pressure) ([5]; 0.70 μmol/kg i.v., 20 minutes): -7 mmHg | change in dp/dt ([5]; 0.70 μmol/kg i.v., 20 minutes): -92 mmHg/sec

COc1ccc([C@@H]2Sc3ccccc3N(CCN(C)C)C(=O)[C@@H]2OC(=O)/C=C/C(=O)O[C@H]2C(=O)N(CCN(C)C)c3ccccc3S[C@H]2c2ccc(OC)cc2)cc1 [Ia, 3,3'-[(2E)-(1,4-dioxo-1,4-butenediyl)-bis(oxy)]bis[(+)-cis-5-[2-(dimethylamino)ethyl]-2,3-dihydro-2-(4-methoxyphenyl)-1,5-benzothiazepin-4-(5H)-one]]
inhibition at 10 µM [1]: 5% | activation at 10 µM [1]: 6% | activity on force and frequency of the contractions (in words) [1]: virtually inactive; also recorded: free of the negative chronotropic and inotropic effects | selectivity, isolated vessels vs atria (in words) [2]: selective activity on the isolated vessels | inhibition of contraction force (in words) [2]: antagonize the contraction force in a dose-dependent manner; also recorded: significantly inhibit the contraction force | IC50 [2]: 3980 nM | change in BP (systemic arterial pressure) ([5]; 0.35 μmol/kg i.v., 0.5 minutes): -32 mmHg | change in HR (heart rate) ([5]; 0.35 μmol/kg i.v., 0.5 minutes): -19 bpm | change in LVP (left intraventricular pressure) ([5]; 0.35 μmol/kg i.v., 0.5 minutes): -29 mmHg | change in dp/dt ([5]; 0.35 μmol/kg i.v., 0.5 minutes): -31 mmHg/sec | change in BP (systemic arterial pressure) ([5]; 0.35 μmol/kg i.v., 2 minutes): -16 mmHg | change in HR (heart rate) ([5]; 0.35 μmol/kg i.v., 2 minutes): -19 bpm | change in LVP (left intraventricular pressure) ([5]; 0.35 μmol/kg i.v., 2 minutes): -11 mmHg | change in dp/dt ([5]; 0.35 μmol/kg i.v., 2 minutes): -20 mmHg/sec | change in BP (systemic arterial pressure) ([5]; 0.35 μmol/kg i.v., 10 minutes): +2 mmHg | change in HR (heart rate) ([5]; 0.35 μmol/kg i.v., 10 minutes): -9 bpm | change in LVP (left intraventricular pressure) ([5]; 0.35 μmol/kg i.v., 10 minutes): -2 mmHg | change in dp/dt ([5]; 0.35 μmol/kg i.v., 10 minutes): -67 mmHg/sec | change in BP (systemic arterial pressure) ([5]; 0.35 μmol/kg i.v., 20 minutes): -8 mmHg | change in HR (heart rate) ([5]; 0.35 μmol/kg i.v., 20 minutes): -14 bpm | change in LVP (left intraventricular pressure) ([5]; 0.35 μmol/kg i.v., 20 minutes): -11 mmHg | change in dp/dt ([5]; 0.35 μmol/kg i.v., 20 minutes): -25 mmHg/sec | effect on heart rate and contractility (in words) ([5]; 0.7 μmol/kg i.v.): without altering the heart rate and contractility parameters | hypotensive activity (in words) ([5]; 0.7 μmol/kg i.v.): significant and lasting hypotensive activity | change in BP (systemic arterial pressure) ([5]; 0.70 μmol/kg i.v., 0.5 minutes): -32 mmHg | change in HR (heart rate) ([5]; 0.70 μmol/kg i.v., 0.5 minutes): -19 bpm | change in LVP (left intraventricular pressure) ([5]; 0.70 μmol/kg i.v., 0.5 minutes): -33 mmHg | change in dp/dt ([5]; 0.70 μmol/kg i.v., 0.5 minutes): -15 mmHg/sec | change in BP (systemic arterial pressure) ([5]; 0.70 μmol/kg i.v., 2 minutes): -33 mmHg | change in HR (heart rate) ([5]; 0.70 μmol/kg i.v., 2 minutes): -11 bpm | change in LVP (left intraventricular pressure) ([5]; 0.70 μmol/kg i.v., 2 minutes): -32 mmHg | change in dp/dt ([5]; 0.70 μmol/kg i.v., 2 minutes): -20 mmHg/sec | change in BP (systemic arterial pressure) ([5]; 0.70 μmol/kg i.v., 10 minutes): -22 mmHg | change in HR (heart rate) ([5]; 0.70 μmol/kg i.v., 10 minutes): -13 bpm | change in LVP (left intraventricular pressure) ([5]; 0.70 μmol/kg i.v., 10 minutes): -32 mmHg | change in dp/dt ([5]; 0.70 μmol/kg i.v., 10 minutes): -16 mmHg/sec | change in BP (systemic arterial pressure) ([5]; 0.70 μmol/kg i.v., 20 minutes): -25 mmHg | change in HR (heart rate) ([5]; 0.70 μmol/kg i.v., 20 minutes): -9 bpm | change in LVP (left intraventricular pressure) ([5]; 0.70 μmol/kg i.v., 20 minutes): -32 mmHg | change in dp/dt ([5]; 0.70 μmol/kg i.v., 20 minutes): -20 mmHg/sec | selectivity of action (in words) ([5]; conclusion from in vivo and in vitro results): selective action on the smooth vessel musculature | toxicity versus diltiazem, intraperitoneal (in words) [3]: less toxic than the reference product | toxicity versus diltiazem, oral (in words) [3]: less toxic | LD50 at 336 h ([4]; ip): 250 mg/kg | LD50 at 336 h ([4]; po): > 1500 mg/kg
